Test results taken from ChEMBL document CHEMBL1201862, “PubChem BioAssay data set” (2004).
Structures can show the parent of a compound that is named as a salt. Calls of active or inactive are those of the source.

Columns and labels:
[1] = NIH-3T3 fibroblast cytotoxicity, dose response, cytotoxicity control, cell-based, fluorescence, Alamar Blue, secondary assay (AID 2327); format: functional;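 note: NIH-3T3 mouse fibroblasts cultured with fluconazole at 8 µg/mL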
[2] = viability loss in A549 lung cancer cells – cell-based, cherry-picks, […], cytotoxicity control, dose response (AID 1053119); format: functional
[3] = biological target: Heat shock protein HSP 90-alpha (Homo sapiens, UniProt P07900); format: functional, organism-based
[4] = fluconazole-exposed Candida albicans growth modulators – fluorescence, retest, confirmation (AID 2467); format: functional, cell-based
[5] = toxicity to human hepatoma HepG2 cells – cell-based, cherry-picked samples, cytotoxicity control, dose response (AID 1159577); format: functional
[6] = P. falciparum Dd2 growth inhibitors, dose response, SYBR Green, cherry-picked samples (AID 1159567); format: functional, cell-based
[7] = Dd2 malaria parasite growth inhibition potency – SYBR Green, dry powder samples, dose response (AID 1159566); format: functional, cell-based;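 note: potency for growth inhibition with lower SYBR green DNA signal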
[8] = toxicity to human HepG2 hepatoma cells – cell-based, plate reader, dry powder samples, cytotoxicity control, dose response (AID 1159569); format: functional;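 note: inhibitor potency with signal falling toward the positive control level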
[9] = growth inhibition of yeast DHODH-expressing 3D7 parasites – SYBR Green, dry powder samples, dose response (AID 1159570); format: functional, cell-based;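 note: parasite growth measured after 72 hours of compound exposure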
[10] = growth inhibition of PfATP4-mutant resistant parasites – NITD609-resistant line, SYBR Green, dry powder, dose response (AID 1159571); format: functional, cell-based;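 note: parasites synchronized at ring stage by sorbitol before testing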
[11] = general cell-killing toxicity readout – plate reader, dry powder samples, cytotoxicity control for PAX8 inhibitor project, dose response (AID 743021); format: functional, cell-based
[12] = IGROV1 cell killing – plate reader, dry powder samples, PAX8 inhibitor project, dose response (AID 743043); format: functional, cell-based; conditions: IGROV-1
[13] = OVCAR8 cell viability loss – plate reader, dry powder samples, PAX8 project, dose response (AID 743197); format: functional, cell-based; conditions: OVCAR-8
[14] = A2780 cell killing – plate reader, dry powder samples, cytotoxicity control, dose response (AID 743046); format: functional, cell-based
[15] = biological target: Paired box protein Pax-8 (Homo sapiens, UniProt Q06710); assay: PAX8 transcriptional activity inhibition in RMG-I – RMG-I cells, luciferase, cherry-pick, dose response (AID 687027); format: functional, cell-based;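 note: luciferase reporter driven by Pax8 target thyroperoxidase promoter measured by SteadyGlo luminescence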
[16] = OVCAR-3 cell viability loss – plate reader, dry powder samples, PAX8 inhibitor project, dose response (AID 743044); format: functional, cell-based
[17] = biological target: Endoplasmic reticulum aminopeptidase 1 (Homo sapiens, UniProt Q9NZ08); assay: inhibition of human ERAP1 enzyme activity – biochemical, cherry-pick, set 2, plate reader, dose response (AID 743314)
[18] = biological target: Major prion protein (Homo sapiens, UniProt P04156); format: functional, cell-based
[19] = cells
[20] = blockers of FN fibrillogenesis by fibroblasts – AH1F cells, Alexa488-FN fluorescence, cherry-picks, dose response (AID 1035475); format: functional, cell-based
[21] = viability loss in HEK293 kidney cells – cell-based, cherry-picks, set 5, cytotoxicity control, dose response (AID 1053117); format: functional
[22] = biological target: T1, Oxysterols receptor LXR-beta (Homo sapiens, UniProt P55055); format: functional, cell-based;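 note: agonist activity at LXR measured by a cell-based luminescence readout across a dose range, run as a counterscreen for daf-12 agonists; HEK293 cells with Gal4-LXR fusion and GAL4-driven luciferase reporter; potency for activation of Gal4-LXR reporter so compounds are agonists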
T1 sequence (P55055 whole entry): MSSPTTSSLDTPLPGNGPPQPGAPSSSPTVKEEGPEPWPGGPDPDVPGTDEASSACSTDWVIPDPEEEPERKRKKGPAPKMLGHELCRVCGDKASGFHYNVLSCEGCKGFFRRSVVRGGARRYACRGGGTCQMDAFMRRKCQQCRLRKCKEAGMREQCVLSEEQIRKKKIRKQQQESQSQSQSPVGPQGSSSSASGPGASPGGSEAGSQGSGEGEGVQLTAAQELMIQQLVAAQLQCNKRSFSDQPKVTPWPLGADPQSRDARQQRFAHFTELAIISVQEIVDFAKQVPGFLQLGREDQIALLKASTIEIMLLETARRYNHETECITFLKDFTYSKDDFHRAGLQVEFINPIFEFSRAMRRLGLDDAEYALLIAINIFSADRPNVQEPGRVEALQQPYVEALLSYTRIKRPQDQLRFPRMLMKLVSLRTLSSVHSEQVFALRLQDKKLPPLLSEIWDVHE

[23] = biological target: Disintegrin and metalloproteinase domain-containing protein 17 (Homo sapiens, UniProt P78536); assay: exosite inhibitors of ADAM17, dose response, biochemical (AID 743260)
[24] = inhibition of ADAM10 peptide cleavage – biochemical, FRET peptide substrate, recombinant human ADAM10, selectivity assay for ADAM17 exosite inhibitor project, dose response (AID 743259);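 note: ADAM10 enzyme cleaving a FRET peptide substrate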
[25] = viability loss in HepG2 hepatoma cells – cell-based, ATP luminescence, cherry-pick, activator set 2, cytotoxicity control, dose response (AID 1053143); format: functional
[26] = rise of 2N DNA cells, HeLa – IC50, dose response (AID 1117349); format: functional, cell-based
[27] = rise of 4N DNA cells, HeLa – IC50, dose response (AID 1117351); format: functional, cell-based
[28] = cells; format: functional, cell-based; conditions: INS-1E

Cc1ccc(O)c(-c2cc(-c3cccc(Br)c3)[nH]n2)c1
EC50 [1]: 16.3 µM (active)
AC50 [2]: 37.3 µM (active)
AC50 [3]: 3.01 µM (active)
EC50 [4]: 4.48 µM (active)

Cc1cccc(S(=O)(=O)N2C[C@@H]3N[C@H](C2)[C@H]3c2ccc(-c3ccncc3)cc2)c1
AC50 [5]: > 39 µM (inactive)
AC50 [6]: 1.84 µM (active)
AC50 [7]: 1.48 µM (active)
AC50 [8]: 41.5 µM (active)
AC50 [9]: 2.12 µM (active)
AC50 [10]: 3.58 µM (active)

COc1ccc(S(=O)(=O)Nc2ccc3c(c2)C(=O)N([C@H](C)CO)C[C@H](C)[C@@H](CN(C)S(=O)(=O)c2ccc(Cl)cc2)OCCCC[C@H](C)O3)cc1
AC50 [11]: 51.9 µM (active)
AC50 [12]: 24.8 µM (active)
AC50 [13]: > 70 µM (inactive)
AC50 [14]: 21.4 µM (active)
AC50 [15]: 7.7 µM (active)
AC50 [16]: 16 µM (active)

CCNC(=O)[C@@H]1[C@@H](CO)[C@@H]2Cn3c(ccc(/C=C/c4ccccc4)c3=O)[C@H]1N2C(=O)C1CCCC1
AC50 [17]: 9.24 µM (active)

CCOC(=O)CSc1nc(C(C)(C)C)nc2ccccc12
IC50 [18]: 6.98 µM (active)
IC50 [19]: > 138 µM (inactive)

O=S(=O)(c1cccc(F)c1)N1CC[C@H]2[C@H](CO)Nc3ccc(-c4cccc(F)c4)cc3[C@H]21
AC50 [20]: 41.9 µM (active)
AC50 [21]: > 52 µM (inactive)

COCCNc1nc(-c2cc3ccccc3o2)cs1
EC50 [22]: > 67.5 µM (inactive)

COc1ccc(N(C)S(=O)(=O)c2cccc(C(=O)OC(C(=O)Nc3cc(C)cc(C)c3)c3ccccc3)c2)cc1 (stereo not drawn)
IC50 [23]: > 69.5 µM (inactive)
IC50 [24]: > 69.5 µM (inactive)

CCC(=O)Nc1cc2nn(-c3ccccc3)nc2cc1Cl
AC50 [25]: 5.02 µM (active)

Cc1ccccc1C(OCCN(C)C)c1ccccc1 (stereo not drawn) [ORPHENADRINE CITRATE]
IC50 [26]: > 10 µM (inactive)
IC50 [27]: > 10 µM (inactive)
IC50 [28]: > 33.3 µM (inactive)
